Measured values taken from patent US4921855A, “New Histidyl amino acid derivatives, and pharmaceutical composition comprising the same” (Fujisawa Pharmaceutical Co., Ltd., priority 1987, dated 1990).

Biological target: T1, renin (Homo sapiens, UniProt P00797)
T1 construct: endogenous renin and angiotensinogen in plasma; from tissue; host or cells: pooled human plasma (EDTA) from male volunteers
T1 sequence (P00797 67-406): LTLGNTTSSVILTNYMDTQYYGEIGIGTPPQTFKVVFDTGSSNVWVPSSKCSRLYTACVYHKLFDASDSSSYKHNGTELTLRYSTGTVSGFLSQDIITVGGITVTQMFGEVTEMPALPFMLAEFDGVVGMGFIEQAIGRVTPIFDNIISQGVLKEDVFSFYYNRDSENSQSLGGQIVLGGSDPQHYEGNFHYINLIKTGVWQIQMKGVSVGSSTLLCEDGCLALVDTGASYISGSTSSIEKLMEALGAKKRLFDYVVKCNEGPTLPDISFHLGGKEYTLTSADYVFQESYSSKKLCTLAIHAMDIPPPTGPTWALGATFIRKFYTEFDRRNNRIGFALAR
Assay: Inhibition of human plasma renin activity (angiotensin I formation, RIA)
Format: biochemical
Settings: endogenous renin and angiotensinogen, pH 6.0, 37° C, 90 minutes, RIA of Ang I
Method: Human plasma was collected from male volunteers pretreated with no drugs and used as a pool. Disodium salt of ethylenediaminetetraacetic acid (EDTA) was used as the anticoagulant. Plasma renin activity was measured as the rate of angiotensin I (Ang I) formation after incubation (37° C) of the endogenous renin and angiotensinogen in plasma at pH 6.0. The incubation mixture contained 250 μl of plasma, 5 μl of (phenylmethyl)sulfonyl fluoride, 30 μl of buffer (sodium, potassium-phosphate, pH 6.0), and 15 μl of an appropriate concentration of test compound in 50% ethyl alcohol-water vehicle. The Ang I formed after 90 minutes of incubation was measured by radioimmunoassay (RIA) which was carried out with a commercial kit, RENCTK 100 (manufactured by Commissariat A L'energic Atomique). Samples were incubated in duplicate and each tube was measured in duplicate in the RIA. Percentage inhibition of plasma renin activity was calculated by comparing the amount of Ang I produced with and without a test compound. The concentration of test compound that inhibited plasma renin activity by 50% (IC50) was determined by Probit method.

IC50 [µM] | Structure (SMILES)
0.019 | CC(C)CC[C@H](O)[C@H](CC1CCCCC1)NC(=O)[C@H](Cc1c[nH]cn1)N(C)C(=O)[C@H](Cc1ccccc1)OC(=O)N1CCN(C)C(=O)C1 [(11)]
0.016 | CC(C)CC[C@H](O)[C@H](CC1CCCCC1)NC(=O)[C@H](Cc1c[nH]cn1)N(C)C(=O)[C@H](Cc1ccccc1)OC(=O)N(C)CCCCC(=O)N(C)C(C)C [(29)]
0.03 | CC(C)CC[C@H](O)[C@H](CC1CCCCC1)NC(=O)[C@H](Cc1c[nH]cn1)N(C)C(=O)[C@H](Cc1ccccc1)OC(=O)N1CCC[C@@H]1C(=O)N(C)C [(9)]
0.041 | CC(C)CC[C@H](O)[C@H](CC1CCCCC1)NC(=O)[C@H](Cc1c[nH]cn1)N(C)C(=O)[C@H](Cc1ccccc1)OC(=O)N(C)CCC(=O)N(C)C [(6)]
0.044 | CC(C)CC[C@H](O)[C@H](CC1CCCCC1)NC(=O)[C@H](Cc1c[nH]cn1)N(C)C(=O)[C@H](Cc1ccccc1)OC(=O)N(C)CCC(=O)N1CC=CCC1 [(38)]
0.043 | CC(C)CC[C@H](O)[C@H](CC1CCCCC1)NC(=O)[C@H](Cc1c[nH]cn1)N(C)C(=O)[C@H](Cc1ccccc1)OC(=O)N(C)N(C)C(=O)NC(C)C [(21)]
0.07 | CC(C)CC[C@H](O)[C@H](CC1CCCCC1)NC(=O)[C@H](Cc1c[nH]cn1)N(C)C(=O)[C@H](Cc1ccccc1)OC(=O)N(C)N(C)C(=O)OCC(C)C [(20)]
0.021 | CC(C)CC[C@H](O)[C@H](CC1CCCCC1)NC(=O)[C@H](Cc1c[nH]cn1)N(C)C(=O)[C@H](Cc1ccccc1)OC(=O)N1CC(=O)N2CCC[C@H]2C1 [(10)]
0.08 | CC(C)CC[C@H](O)[C@H](CC1CCCCC1)NC(=O)[C@H](Cc1c[nH]cn1)N(C)C(=O)[C@H](Cc1ccccc1)OC(=O)N1CCOCC1 [(2)]
0.03 | CC(C)CC[C@H](O)[C@H](CC1CCCCC1)NC(=O)[C@H](Cc1c[nH]cn1)N(C)C(=O)[C@H](Cc1ccccc1)OC(=O)N(C)CCC(=O)N1CCSCC1 [(18)]
0.037 | CC(C)CC[C@H](O)[C@H](CC1CCCCC1)NC(=O)[C@H](Cc1c[nH]cn1)N(C)C(=O)[C@H](Cc1ccccc1)OC(=O)N(C)CCC(=O)NC(C)C [(39)]
0.024 | CC(C)CC[C@H](O)[C@H](CC1CCCCC1)NC(=O)[C@H](Cc1c[nH]cn1)N(C)C(=O)[C@H](Cc1ccccc1)OC(=O)N(C)CCC(=O)N(C)c1ccccc1 [(26)]
0.033 | CC(=O)COC(=O)CN(C)C(=O)O[C@@H](Cc1ccccc1)C(=O)N(C)[C@@H](Cc1c[nH]cn1)C(=O)N[C@@H](CC1CCCCC1)[C@@H](O)CCC(C)C [(15)]
0.033 | CC(C)CC[C@H](O)[C@H](CC1CCCCC1)NC(=O)[C@H](Cc1c[nH]cn1)N(C)C(=O)[C@H](Cc1ccccc1)OC(=O)N(C)CCC(=O)NCc1ccccn1 [(17)]
0.033 | COC(=O)CN(C)C(=O)O[C@@H](Cc1ccccc1)C(=O)N(C)[C@@H](Cc1c[nH]cn1)C(=O)N[C@@H](CC1CCCCC1)[C@@H](O)CCC(C)C [(3)]
0.038 | CCOC(=O)CNC(=O)CCN(C)C(=O)O[C@@H](Cc1ccccc1)C(=O)N(C)[C@@H](Cc1c[nH]cn1)C(=O)N[C@@H](CC1CCCCC1)[C@@H](O)CCC(C)C [(16)]
0.015 | CC(C)CC[C@H](O)[C@H](CC1CCCCC1)NC(=O)[C@H](Cc1c[nH]cn1)N(C)C(=O)[C@H](Cc1ccccc1)OC(=O)N(C)CCCC(=O)N1CCOCC1 [(32)]
0.014 | CC(C)CC[C@H](O)[C@H](CC1CCCCC1)NC(=O)[C@H](Cc1c[nH]cn1)N(C)C(=O)[C@H](Cc1ccccc1)OC(=O)N(C)CCN(C)C(=O)CC(C)C [(25)]

The remaining lines, values behind:

Structure (SMILES) | IC50 [µM]
CC(C)CC[C@H](O)[C@H](CC1CCCCC1)NC(=O)[C@H](Cc1c[nH]cn1)N(C)C(=O)[C@H](Cc1ccccc1)OC(=O)N(C)CC(=O)OCCc1ccccc1 [(14)] | 0.048
CC(C)CC[C@H](O)[C@H](CC1CCCCC1)NC(=O)[C@H](Cc1c[nH]cn1)N(C)C(=O)[C@H](Cc1ccccc1)OC(=O)N(C)CCCC(=O)N(C)C(C)C [(33)] | 0.017
CC(C)CC[C@H](O)[C@H](CC1CCCCC1)NC(=O)[C@H](Cc1c[nH]cn1)N(C)C(=O)[C@H](Cc1ccccc1)OC(=O)N(C)CCCCN(C)C(=O)N1CCOCC1 [(34)] | 0.0075
CC(C)CC[C@H](O)[C@H](CC1CCCCC1)NC(=O)[C@H](Cc1c[nH]cn1)N(C)C(=O)[C@H](Cc1ccccc1)OC(=O)N(C)CC(=O)NCc1ccncc1 [(8)] | 0.046
CC(C)CC[C@H](O)[C@H](CC1CCCCC1)NC(=O)[C@H](Cc1c[nH]cn1)N(C)C(=O)[C@H](Cc1ccccc1)OC(=O)N(C)CCCCC(=O)NC(C)C [(30)] | 0.0064
CC(C)CC[C@H](O)[C@H](CC1CCCCC1)NC(=O)[C@H](Cc1c[nH]cn1)N(C)C(=O)[C@H](Cc1ccccc1)OC(=O)N(C)CC(=O)N(C)C [(7)] | 0.04
CC(C)CC[C@H](O)[C@H](CC1CCCCC1)NC(=O)[C@H](Cc1c[nH]cn1)N(C)C(=O)[C@H](Cc1ccccc1)OC(=O)N(C)CCCN(C)C(=O)N1CCOCC1 [(31)] | 0.013
CC(C)CC[C@H](O)[C@H](CC1CCCCC1)NC(=O)[C@H](Cc1c[nH]cn1)N(C)C(=O)[C@H](Cc1ccccc1)OC(=O)N(C)CC(=O)OCC(C)C [(13)] | 0.034
CC(C)CC[C@H](O)[C@H](CC1CCCCC1)NC(=O)[C@H](Cc1c[nH]cn1)N(C)C(=O)[C@H](Cc1ccccc1)OC(=O)N(C)CCS(=O)(=O)C(C)C [(40)] | 0.057
CC(C)CC[C@H](O)[C@H](CC1CCCCC1)NC(=O)[C@H](Cc1c[nH]cn1)NC(=O)[C@H](Cc1ccccc1)OC(=O)N(C)CCC(=O)N1CCOCC1 [(19)] | 0.0048
CC(C)CC[C@H](O)[C@H](CC1CCCCC1)NC(=O)[C@H](Cc1c[nH]cn1)N(C)C(=O)[C@H](Cc1ccccc1)OC(=O)N(C)CCC(=O)N(C)CC(C)C [(27)] | 0.046
CC(C)CC[C@H](O)[C@H](CC1CCCCC1)NC(=O)[C@H](Cc1c[nH]cn1)N(C)C(=O)[C@H](Cc1ccccc1)OC(=O)N1CCCN1C(=O)NC(C)C [(22)] | 0.063
COC(=O)[C@H]1CCCN1C(=O)O[C@@H](Cc1ccccc1)C(=O)N(C)[C@@H](Cc1c[nH]cn1)C(=O)N[C@@H](CC1CCCCC1)[C@@H](O)CCC(C)C [(4)] | 0.013
CC(C)CC[C@H](O)[C@H](CC1CCCCC1)NC(=O)[C@H](Cc1c[nH]cn1)N(C)C(=O)[C@H](Cc1ccccc1)OC(=O)N1CCCC(=O)C1 [(28)] | 0.044
CC(C)CC[C@H](O)[C@H](CC1CCCCC1)NC(=O)[C@H](Cc1c[nH]cn1)NC(=O)[C@H](Cc1ccccc1)OC(=O)N1CCOCC1 [(1)] | 0.019
CC(C)CC[C@H](O)[C@H](CC1CCCCC1)NC(=O)[C@H](Cc1c[nH]cn1)N(C)C(=O)[C@H](Cc1ccccc1)OC(=O)N1CCNC(=O)C1 [(12)] | 0.029
CC(C)CC[C@H](O)[C@H](CC1CCCCC1)NC(=O)[C@H](Cc1c[nH]cn1)N(C)C(=O)[C@H](Cc1ccccc1)OC(=O)N(C)CCC(=O)N(C)CCc1ccccn1 [(37)] | 0.038
CC(C)CC[C@H](O)[C@H](CC1CCCCC1)NC(=O)[C@H](Cc1c[nH]cn1)N(C)C(=O)[C@H](Cc1ccccc1)OC(=O)N(C)CCCCC(=O)N1CCOCC1 [(35)] | 0.0053
CC(C)CC[C@H](O)[C@H](CC1CCCCC1)NC(=O)[C@H](Cc1c[nH]cn1)NC(=O)[C@H](Cc1ccccc1)OC(=O)N(C)N(C)C(=O)N1CCOCC1 [(36)] | 0.0098
